Measured values: ChEMBL document CHEMBL1201862, “PubChem BioAssay data set” (2004)
Calls of active or inactive are those of the source.

Key:
[1] = molecular target: T1, Polyadenylate-binding protein 1 (Homo sapiens, UniProt P11940); experiment: MLLE binding blockers, Cy5 peptide tracer – biochemical, fluorescence polarization, Cy5-PAM2 peptide, secondary, miRNA deadenylation inhibitor project, dose response (AID 602260); type: functional; conditions: read-out: IC50_Mean
[2] = molecular target: T1, Polyadenylate-binding protein 1; experiment: MLLE domain peptide-binding blockers, IC50 – biochemical, fluorescence polarization, FITC-PAM2 peptide, dose response (AID 602259); type: functional; conditions: read-out: IC50_Mean
[3] = molecular target: T2, Short transient receptor potential channel 4 (Mus musculus, UniProt Q9QUQ5); experiment: block of DAMGO-driven TRPC4 calcium entry – cell-based, HEK293 TRPC4/mu-opioid, Fluo-4 calcium, dose response (AID 434942); type: functional;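 also: potency of inhibitors blocking the TRPC4 calcium response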
T2 sequence (Q9QUQ5 whole entry): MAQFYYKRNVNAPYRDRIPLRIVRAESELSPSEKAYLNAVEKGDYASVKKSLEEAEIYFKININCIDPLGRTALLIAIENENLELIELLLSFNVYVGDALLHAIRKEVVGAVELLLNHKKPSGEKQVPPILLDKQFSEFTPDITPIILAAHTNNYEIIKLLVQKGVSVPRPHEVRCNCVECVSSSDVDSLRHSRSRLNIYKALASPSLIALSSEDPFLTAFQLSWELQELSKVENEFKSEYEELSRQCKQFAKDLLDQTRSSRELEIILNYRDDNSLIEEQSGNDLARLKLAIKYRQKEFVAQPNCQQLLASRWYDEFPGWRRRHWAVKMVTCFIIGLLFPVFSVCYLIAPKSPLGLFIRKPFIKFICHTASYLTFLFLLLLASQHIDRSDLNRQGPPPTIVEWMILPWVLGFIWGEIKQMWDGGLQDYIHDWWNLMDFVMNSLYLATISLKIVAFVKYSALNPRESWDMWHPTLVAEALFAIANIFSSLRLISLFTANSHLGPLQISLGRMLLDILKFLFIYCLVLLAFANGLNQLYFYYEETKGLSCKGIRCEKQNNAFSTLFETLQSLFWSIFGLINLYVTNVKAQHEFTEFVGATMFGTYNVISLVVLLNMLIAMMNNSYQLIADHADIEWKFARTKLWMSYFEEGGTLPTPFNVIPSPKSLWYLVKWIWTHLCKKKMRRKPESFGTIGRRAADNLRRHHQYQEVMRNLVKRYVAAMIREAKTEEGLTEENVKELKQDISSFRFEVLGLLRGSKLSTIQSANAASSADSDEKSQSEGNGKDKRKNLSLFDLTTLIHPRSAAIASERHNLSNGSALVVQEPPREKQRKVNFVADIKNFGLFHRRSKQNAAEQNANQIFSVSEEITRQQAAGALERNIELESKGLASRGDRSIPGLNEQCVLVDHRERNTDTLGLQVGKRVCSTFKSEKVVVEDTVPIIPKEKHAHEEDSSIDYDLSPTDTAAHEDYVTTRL

[4] = molecular target: T3, DNA repair and recombination protein RAD54-like (Homo sapiens, UniProt Q92698); experiment: RAD54 Holliday junction migration blockers – biochemical, fluorescence, cherry-picked samples, dose series, confirmation (AID 651657); type: functional
T3 sequence (Q92698 whole entry): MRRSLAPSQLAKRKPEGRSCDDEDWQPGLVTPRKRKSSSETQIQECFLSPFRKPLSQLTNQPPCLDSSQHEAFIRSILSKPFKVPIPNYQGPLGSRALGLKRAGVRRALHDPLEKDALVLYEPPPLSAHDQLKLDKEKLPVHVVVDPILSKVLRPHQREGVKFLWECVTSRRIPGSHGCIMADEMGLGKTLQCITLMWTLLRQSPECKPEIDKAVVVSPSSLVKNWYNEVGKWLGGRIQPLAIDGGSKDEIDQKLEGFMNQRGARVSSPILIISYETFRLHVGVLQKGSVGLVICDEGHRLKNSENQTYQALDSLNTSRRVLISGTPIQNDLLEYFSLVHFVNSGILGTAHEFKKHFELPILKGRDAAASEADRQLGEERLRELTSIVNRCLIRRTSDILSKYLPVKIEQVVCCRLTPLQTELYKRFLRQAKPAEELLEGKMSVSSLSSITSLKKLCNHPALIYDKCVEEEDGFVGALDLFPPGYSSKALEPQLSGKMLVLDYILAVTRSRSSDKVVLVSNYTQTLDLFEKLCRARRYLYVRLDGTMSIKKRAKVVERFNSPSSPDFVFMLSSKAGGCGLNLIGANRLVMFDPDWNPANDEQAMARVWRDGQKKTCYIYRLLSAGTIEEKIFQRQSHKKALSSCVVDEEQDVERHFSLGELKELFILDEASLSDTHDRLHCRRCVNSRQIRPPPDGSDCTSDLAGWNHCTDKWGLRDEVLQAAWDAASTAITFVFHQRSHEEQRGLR

[5] = molecular target: T4, DNA repair protein RAD52 homolog (Homo sapiens, UniProt P43351); type: functional, biochemical
T4 sequence (P43351 whole entry): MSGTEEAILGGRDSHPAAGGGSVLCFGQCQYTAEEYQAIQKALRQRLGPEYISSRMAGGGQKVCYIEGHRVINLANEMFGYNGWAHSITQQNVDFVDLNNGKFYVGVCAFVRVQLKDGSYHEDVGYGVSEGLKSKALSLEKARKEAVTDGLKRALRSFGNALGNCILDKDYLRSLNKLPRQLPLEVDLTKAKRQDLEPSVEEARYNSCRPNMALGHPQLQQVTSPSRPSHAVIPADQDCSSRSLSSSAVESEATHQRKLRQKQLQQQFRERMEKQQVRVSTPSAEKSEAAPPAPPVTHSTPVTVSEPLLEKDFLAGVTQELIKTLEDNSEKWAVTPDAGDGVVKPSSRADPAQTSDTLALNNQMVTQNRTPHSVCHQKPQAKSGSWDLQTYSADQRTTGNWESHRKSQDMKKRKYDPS

BJ [6] = experiment: BJ-TERT-LT-ST fibroblast viability loss – cell-based, RAS-independent, luminescence, dose response (AID 1935); type: functional; conditions: Homo sapiens;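 also: BJ fibroblasts immortalized with TERT plus LT and ST oncogenes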
Protein RecA = molecular target: T5, Protein RecA (Mycobacterium tuberculosis, UniProt P9WHJ3); experiment: Fluorescence Cell-Free Homogeneous Dose Retest to Identify Inhibitors of RecA-Intein Splicing Activity. [Related pubchem assays (depositor defined):AID2097, AID2223, AID489010, AID492950]; type: functional
T5 sequence (P9WHJ3 whole entry): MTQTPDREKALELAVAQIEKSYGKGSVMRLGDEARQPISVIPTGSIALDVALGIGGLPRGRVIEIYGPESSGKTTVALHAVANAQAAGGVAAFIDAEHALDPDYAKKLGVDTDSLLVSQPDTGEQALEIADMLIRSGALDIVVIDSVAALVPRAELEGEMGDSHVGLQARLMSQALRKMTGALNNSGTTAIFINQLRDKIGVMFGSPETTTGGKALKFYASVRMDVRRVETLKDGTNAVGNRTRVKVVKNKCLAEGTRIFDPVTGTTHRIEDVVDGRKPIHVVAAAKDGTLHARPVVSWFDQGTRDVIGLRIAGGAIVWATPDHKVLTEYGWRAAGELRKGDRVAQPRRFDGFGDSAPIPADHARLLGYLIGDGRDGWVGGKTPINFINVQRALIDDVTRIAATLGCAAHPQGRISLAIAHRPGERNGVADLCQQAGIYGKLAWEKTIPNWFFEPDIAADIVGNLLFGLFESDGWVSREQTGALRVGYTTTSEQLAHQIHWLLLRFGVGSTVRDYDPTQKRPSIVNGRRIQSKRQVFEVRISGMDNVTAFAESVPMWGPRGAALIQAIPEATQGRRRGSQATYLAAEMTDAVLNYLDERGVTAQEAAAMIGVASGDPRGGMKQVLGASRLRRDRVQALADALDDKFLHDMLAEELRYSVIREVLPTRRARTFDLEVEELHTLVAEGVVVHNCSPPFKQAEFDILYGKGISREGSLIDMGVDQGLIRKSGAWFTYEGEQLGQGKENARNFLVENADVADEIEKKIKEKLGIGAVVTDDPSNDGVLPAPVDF

BJ [7] = experiment: cells; type: functional, cell-based; conditions: Homo sapiens
[8] = molecular target: T6, Replicative DNA helicase DnaB (Mycobacterium tuberculosis, UniProt P9WMR3); experiment: DnaB intein splicing inhibitors, dose response, biochemical, cell-free fluorescence (AID 449749); type: functional
T6 sequence (P9WMR3 whole entry): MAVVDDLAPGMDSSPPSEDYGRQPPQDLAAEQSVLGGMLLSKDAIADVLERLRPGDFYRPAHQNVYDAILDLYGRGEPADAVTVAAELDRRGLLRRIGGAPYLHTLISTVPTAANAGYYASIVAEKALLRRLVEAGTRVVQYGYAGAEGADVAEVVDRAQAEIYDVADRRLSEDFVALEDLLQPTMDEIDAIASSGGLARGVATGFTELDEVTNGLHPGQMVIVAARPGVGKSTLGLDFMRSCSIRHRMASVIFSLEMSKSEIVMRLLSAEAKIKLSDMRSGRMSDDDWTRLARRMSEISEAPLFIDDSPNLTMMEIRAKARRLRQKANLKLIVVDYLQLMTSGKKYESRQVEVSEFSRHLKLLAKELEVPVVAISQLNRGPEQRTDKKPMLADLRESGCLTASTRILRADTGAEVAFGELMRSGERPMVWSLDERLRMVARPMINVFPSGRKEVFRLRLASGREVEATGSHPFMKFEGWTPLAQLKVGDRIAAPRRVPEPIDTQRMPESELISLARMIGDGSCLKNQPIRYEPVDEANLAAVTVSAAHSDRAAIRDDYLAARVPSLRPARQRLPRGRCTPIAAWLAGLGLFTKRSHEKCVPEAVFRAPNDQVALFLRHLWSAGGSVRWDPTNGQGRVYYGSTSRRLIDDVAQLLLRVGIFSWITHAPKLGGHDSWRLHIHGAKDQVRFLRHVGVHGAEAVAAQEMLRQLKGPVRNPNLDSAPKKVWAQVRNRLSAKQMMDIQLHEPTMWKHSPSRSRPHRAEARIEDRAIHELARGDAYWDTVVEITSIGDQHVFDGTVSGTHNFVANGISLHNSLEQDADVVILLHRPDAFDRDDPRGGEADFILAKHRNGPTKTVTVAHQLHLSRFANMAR

BJ [9] = experiment: BJ-TERT fibroblast viability loss – cell-based, RAS-independent, luminescence, dose response (AID 1933); type: functional; conditions: Homo sapiens
[10] = DRD fibroblast viability loss – cell-based, non-viral oncogenic, luminescence, dose response (AID 1934); type: functional; conditions: Homo sapiens
[11] = molecular target: T7, Heat shock factor protein 1 (Mus musculus, UniProt P38532); experiment: enhancement of HSF1-driven luciferase signal – cell-based, NIH3T3, luminescence, dose retest, confirmation (AID 435004); type: functional;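 also: stress induced by proteasome inhibitor MG132 added 30 min after compound; luciferase reporter driven by HSF1 response element in NIH3T3 cells; actives raise luminescence as potentiators of the MG132 stress response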
T7 sequence (P38532 whole entry): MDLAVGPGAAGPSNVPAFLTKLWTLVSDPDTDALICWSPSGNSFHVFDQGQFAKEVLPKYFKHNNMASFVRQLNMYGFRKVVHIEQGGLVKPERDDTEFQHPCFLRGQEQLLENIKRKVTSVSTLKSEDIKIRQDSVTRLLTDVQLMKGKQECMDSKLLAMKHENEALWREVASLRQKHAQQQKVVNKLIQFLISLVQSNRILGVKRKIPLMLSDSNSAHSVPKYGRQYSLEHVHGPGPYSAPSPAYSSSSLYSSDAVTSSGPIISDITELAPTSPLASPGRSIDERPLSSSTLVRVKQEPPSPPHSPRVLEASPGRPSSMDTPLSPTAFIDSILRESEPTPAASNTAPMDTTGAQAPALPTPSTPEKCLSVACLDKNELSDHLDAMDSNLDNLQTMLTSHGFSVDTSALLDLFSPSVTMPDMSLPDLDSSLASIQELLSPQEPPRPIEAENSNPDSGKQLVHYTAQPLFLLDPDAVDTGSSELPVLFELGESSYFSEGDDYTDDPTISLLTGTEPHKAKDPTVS

[12] = viability of PTEN-deleted HCT116 cells – cell-based, HCT116 PTEN knockout, dose response (AID 1047); type: functional;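 also: HCT116 colon tumor cells with PTEN knocked out; cells exposed to compound for 60 hours before readout; potency for loss of cell viability measured by luminescence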
[13] = viability of HCT116 lacking mutant beta-catenin – cell-based, human colon tumor, dose response (AID 1045); type: functional;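 also: HCT116 colon tumor cells with beta catenin knocked out; cells exposed to compound for 60 hours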
[14] = Luminescence Cell-Based Dose Retest to Confirm Inhibitors of Cancer Stem Cells. [Related pubchem assays (depositor defined):AID2717, AID2721]; type: functional; conditions: Homo sapiens
Genome polyprotein = Genome polyprotein (dengue virus type 2, UniProt P29990); experiment: flavivirus cap methylation enzyme inhibition – biochemical, confirmation dose response, primary screen (AID 588689); type: functional
Genome polyprotein, sequence (P29990 2492-3391 limits assumed): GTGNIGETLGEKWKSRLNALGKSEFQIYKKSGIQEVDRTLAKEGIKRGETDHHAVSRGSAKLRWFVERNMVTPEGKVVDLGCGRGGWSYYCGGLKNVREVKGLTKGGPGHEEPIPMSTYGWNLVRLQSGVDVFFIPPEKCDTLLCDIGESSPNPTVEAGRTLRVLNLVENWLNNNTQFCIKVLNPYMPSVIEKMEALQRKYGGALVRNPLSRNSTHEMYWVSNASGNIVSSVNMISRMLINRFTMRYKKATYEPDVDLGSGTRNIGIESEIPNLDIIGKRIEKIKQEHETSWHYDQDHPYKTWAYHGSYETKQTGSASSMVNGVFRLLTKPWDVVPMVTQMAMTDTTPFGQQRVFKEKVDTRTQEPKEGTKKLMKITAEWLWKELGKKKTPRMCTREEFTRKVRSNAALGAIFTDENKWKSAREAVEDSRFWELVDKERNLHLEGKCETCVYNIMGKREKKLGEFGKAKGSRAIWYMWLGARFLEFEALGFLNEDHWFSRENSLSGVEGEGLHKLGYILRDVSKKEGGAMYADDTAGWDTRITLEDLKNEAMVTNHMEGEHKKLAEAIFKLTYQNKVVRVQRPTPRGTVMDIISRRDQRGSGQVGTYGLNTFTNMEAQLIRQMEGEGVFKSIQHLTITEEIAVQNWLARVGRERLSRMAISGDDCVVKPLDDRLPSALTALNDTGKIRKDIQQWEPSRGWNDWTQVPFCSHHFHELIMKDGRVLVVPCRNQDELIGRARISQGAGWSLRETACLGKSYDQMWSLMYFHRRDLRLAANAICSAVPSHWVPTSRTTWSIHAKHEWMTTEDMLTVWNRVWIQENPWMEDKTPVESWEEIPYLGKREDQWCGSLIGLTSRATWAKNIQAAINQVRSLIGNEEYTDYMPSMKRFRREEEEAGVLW

T1 sequence (P11940 whole entry, the tested form may be a part): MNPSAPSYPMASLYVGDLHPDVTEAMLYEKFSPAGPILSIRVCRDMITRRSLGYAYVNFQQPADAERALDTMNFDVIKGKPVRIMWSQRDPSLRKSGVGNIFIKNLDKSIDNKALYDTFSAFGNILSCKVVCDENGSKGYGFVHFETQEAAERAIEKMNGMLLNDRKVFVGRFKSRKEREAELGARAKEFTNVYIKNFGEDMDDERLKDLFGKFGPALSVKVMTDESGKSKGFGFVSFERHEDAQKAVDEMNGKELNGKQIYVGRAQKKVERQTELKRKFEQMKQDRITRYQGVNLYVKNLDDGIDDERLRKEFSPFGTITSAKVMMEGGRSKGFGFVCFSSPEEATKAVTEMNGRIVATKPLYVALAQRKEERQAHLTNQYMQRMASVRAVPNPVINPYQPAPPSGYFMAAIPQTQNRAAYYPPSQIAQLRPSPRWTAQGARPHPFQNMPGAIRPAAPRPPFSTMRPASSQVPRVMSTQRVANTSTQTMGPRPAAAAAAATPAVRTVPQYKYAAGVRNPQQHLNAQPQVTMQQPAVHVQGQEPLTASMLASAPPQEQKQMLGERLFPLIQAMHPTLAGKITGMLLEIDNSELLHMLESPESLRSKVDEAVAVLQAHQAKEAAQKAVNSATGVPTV

CCOC(=O)c1cc(-c2ccc(OC)cc2)nc2c1c(C)nn2CCC(N)=S
IC50 [1]: > 66 µM (inactive)
IC50 [2]: > 66 µM (inactive)

CCn1cc(CN2CCCC(CO)(Cc3cccc(Cl)c3)C2)cn1 (stereo not given)
EC50 [3]: 5.96 µM (active)

CN(C)CCCNc1nc2cc(-c3ccc4c(ccn4C)c3)sc2c(=O)n1C
AC50 [4]: 28.7 µM (active)
AC50 [5]: 4.02 µM (active)

CCC(C)[C@H](NC(=O)C1CC(=O)N(c2ccc3c(c2)OCO3)C1)C(=O)NC1CCCCC1 (stereo not given in full)
IC50 [1]: > 66 µM (inactive)
IC50 [2]: 54.9 µM (inactive)

CCCCN(C)CCNC(=O)c1cc2cc3ccc(OC)cc3nc2o1
AC50 [4]: 50.9 µM (active)

CCOc1ccc(Cn2c(SCCCCC#N)nc3c2c(=O)n(C)c(=O)n3C)cc1OCC
IC50 [1]: > 66 µM (inactive)
IC50 [2]: > 66 µM (inactive)

O=C(NC1CCCC1)C(c1ccc(Cl)cc1)N(Cc1ccc(F)cc1)C(=O)CCl (stereo not given)
EC50 (BJ [6]): > 150 µM (inconclusive)
EC50 (Protein RecA): 1.07 µM (active)
EC50 (BJ [7]): 16.4 µM (active)
AC50 [8]: 1.16 µM (active)
EC50 (BJ [9]): 7.08 µM (inconclusive)
EC50 [10]: 10.5 µM (inconclusive)

CCOC(=O)c1cnc2ccc(OC)cc2c1Nc1ccc(N2CCN(C)CC2)cc1
AC50 [4]: 34 µM (active)
EC50 [11]: > 260 µM (inactive)

Brc1ccc(CN2C3=NCCCN3c3ccccc32)cc1
EC50 [3]: 0.531 µM (active)

N#Cc1ccc(-c2ccc(F)cc2)nc1Sc1ccc(F)cc1
EC50 [12]: 20.6 µM (active)
EC50 [13]: 28.7 µM (active)

O=C(NCCN1CCOCC1)c1ccc2c(c1)N(Cc1ccc(F)cc1)C(=O)CS2
EC50 [3]: 4.73 µM (active)

Cc1ccc(C(=O)NC(=S)Nc2c(C)ccc3nsnc23)cc1
EC50 [3]: 5.96 µM (active)

Cc1ccc(C)c2nc3sc(C(=O)O)cc3cc12
EC50 [3]: 5.31 µM (active)

CCCn1nc([N+](=O)[O-])c(C(C#N)c2nc3ccccc3o2)c(Cl)c1=O (stereo not given)
AC50 [14]: 4.55 µM (active)
IC50 (Genome polyprotein): 34.7 µM (active)
EC50 [3]: 6.68 µM (active)
EC50 [11]: > 260 µM (inactive)

Cc1c(O)c(CN(C)C)cc2c1oc(=O)c1ccccc12
AC50 [4]: 35.5 µM (active)

CCC(O)C1CCN(Cc2cn(-c3ccc(OC)cc3)nc2-c2cccc(F)c2)CC1 (stereo not given)
EC50 [3]: 10.6 µM (active)
